Assay results: patent US12144881B2, “Cosmetic composition containing α-mangostin, method for preparation, and uses thereof” (priority 2018, dated 2024)

Tests used:
[1] = UV absorption spectra in the UV wavelength region; format: physicochemical; conditions: FIG. 1, UVB 290-320 nm and UVA 320-400 nm
From the text: The present inventors tested the UV absorbance of α-mangostin, butyl methoxydibenzoylmethane and octyl salicylate in the UV wavelength region separately. […] Therefore, the α-mangostin has obvious advantages over the sunscreen agent octyl salicylate, and has a part of the absorption band which can be complementary to that of octyl salicylate, enhancing the UVB protection effect and increasing the SPF value.

[2] = Oxygen Radical Absorbance Capacity (ORAC) assay against single oxygen; conditions: trolox equivalent
Procedure: (§1) Test Method: Oxygen Radical Absorbance Capacity (ORAC) Assay Specific method: An extraction solution containing a solubilizing compound was prepared, the sample was added to the extraction solution to extract the antioxidants present in the sample, and a fluorescent probe was added to the extract, a free radical generator was added to the extract, to detect the decay of the fluorescence intensity of the probe in the sample over time, and calculate the oxidation resistance of the sample based on the decay of the fluorescence intensity of the probe in the sample. The results of ORAC are expressed as micromole trolox equivalent (μmole TE)/gram. Trolox is a vitamin E analog, which is an antioxidant standard substance.

[3] = Oxygen Radical Absorbance Capacity (ORAC) assay against hydroxyl radicals; conditions: trolox equivalent
Procedure: as §1

[4] = Photolysis of butyl methoxydibenzoylmethane under sunlight and its inhibition by α-mangostin (absorbance at 357 nm); format: physicochemical; conditions: for M value: M=Bi/Ai, butyl methoxydibenzoylmethane remaining with α-mangostin vs control
Procedure: Instrument and equipment: Model 751-GW spectrophotometer; and FA1004 electronic balance. Reagents: butyl methoxydibenzoylmethane, from Shanghai SIMP Co., Ltd.; and an α-mangostin sample. • (6) Formulation of standard stock solutions of butyl methoxydibenzoylmethane and the sample: 20.0 mg of butyl methoxydibenzoylmethane and α-mangostin were weighed separately, and diluted with a specific mixed solvent (an acetone-water mixed solvent with a ratio by volume of acetone to water of 5:1, hereinafter referred to as mixed solvent) to a volume of 10 ml. • (7) Formulation of reference solutions of butyl methoxydibenzoylmethane and the sample: The mixed solvent was used as the reference solution of butyl methoxydibenzoylmethane. 0.1 ml of the standard stock solution of the α-mangostin sample was drawn, and diluted with the mixed solvent to a volume of 10 ml, as the reference solution of the sample. • (8) Formulation of standard working solutions (20 μg/ml) of butyl methoxydibenzoylmethane and the sample: 0.1 ml of the standard stock solution of butyl methoxydibenzoylmethane was drawn and diluted with the mixed solvent to a volume of 10 ml. 0.1 ml aliquots of the standard stock solution of the α-mangostin sample were drawn separately, and added separately to 0.1 ml aliquots of the standard stock solution of butyl methoxydibenzoylmethane, and then diluted with the mixed solvent to a volume of 10 ml. • (9) Reference solutions and standard working solutions of different concentrations of rutin were formulated according to Steps (2) and (3). • (10) Determination of the photolysis rate and photolysis inhibition rate of butyl methoxydibenzoylmethane: The absorbance of the standard working solution of butyl methoxydibenzoylmethane and the absorbance of butyl methoxydibenzoylmethane in the α-mangostin sample were measured at 357 nm. Then they were subjected to the sunlight exposure, and the absorbance thereof was measured every day. The photolysis rate, the photolysis inhibition rate and the M value of butyl methoxydibenzoylmethane were calculated according to the following formulas: % Photolysis rate=(A0−Ai)/A0×100% % Photolysis inhibition rate=[1−(B0−Bi)/(A0−Ai)]×100 M=Bi/Ai In the formulas, A0 is the absorbance of the standard working solution of butyl methoxydibenzoylmethane; Ai is the absorbance of the standard working solution of butyl methoxydibenzoylmethane after i days of light exposure; B0 is the absorbance of butyl methoxydibenzoylmethane in the standard working solution of the α-mangostin sample; Bi is the absorbance of butyl methoxydibenzoylmethane in the standard working solution of the α-mangostin sample after i days of light exposure; and M is the ratio of the amount of butyl methoxydibenzoylmethane remaining in the α-mangostin sample to the amount of butyl methoxydibenzoylmethane remaining in the control sample without the sample added. For the above α-mangostin sample and butyl methoxydibenzoylmethane, each was determined for the photolysis inhibition rate or the photolysis rate at the same exposure time, to obtain the curve of light exposure time vs. photolysis inhibition rate of the α-mangostin sample (FIG. 3) and the curve of light exposure time vs. photolysis rate of butyl methoxydibenzoylmethane (FIG. 2).

[5] = Oxygen Radical Absorbance Capacity (ORAC) assay against peroxyl radicals; conditions: trolox equivalent
Procedure: as §1

[6] = Oxygen Radical Absorbance Capacity (ORAC) assay against peroxynitrite; conditions: trolox equivalent
Procedure: as §1

[7] = Oxygen Radical Absorbance Capacity (ORAC) assay against oxide anion; conditions: trolox equivalent
Procedure: as §1

[8] = ORAC 5.0 (sum of five ORAC results); conditions: trolox equivalent
Procedure: Test Method: Oxygen Radical Absorbance Capacity (ORAC) Assay
Specific method: An extraction solution containing a solubilizing compound was prepared, the sample was added to the extraction solution to extract the antioxidants present in the sample, and a fluorescent probe was added to the extract, a free radical generator was added to the extract, to detect the decay of the fluorescence intensity of the probe in the sample over time, and calculate the oxidation resistance of the sample based on the decay of the fluorescence intensity of the probe in the sample.
Note: There are 5 main reactive oxygen species (ROS) in the human body: peroxy radicals, hydroxyl radicals, peroxynitrite, superoxide anions and singlet oxygen.
The results of ORAC are expressed as micromole trolox equivalent (μmole TE)/gram. Trolox is a vitamin E analog, which is an antioxidant standard substance.

[9] = Solubility in water; format: physicochemical; conditions: extracted α-mangostin

With `COc1c(O)cc2oc3cc(O)c(CC=C(C)C)c(O)c3c(=O)c2c1CC=C(C)C` [α-mangostin] the “UV absorption (in words)” value [1] was “relatively strong absorption from the UVB range of 290-320 nm to the UVA range of 320-400 nm”, the “ORAC against single oxygen” value [2] was 262 μmole TE/gram and the “ORAC against hydroxyl radicals” value [3] was 9,055 μmole TE/gram. The M value ([4]; Day 1) was 5.77, the M value ([4]; Day 2) was 12.31 and the “inhibitory effect on the photolysis of butyl methoxydibenzoylmethane (in words)” value ([4]; sunlight) was “very good inhibitory effect”. The “Inhibition rate of α-mangostin (photolysis inhibition rate)” value (shortened to “Inhibition rate of α-mangostin”) ([4]; sunlight, light exposure time 1 d, 20 μg/ml each) was 84.3%, the “Inhibition rate of α-mangostin” value ([4]; sunlight, light exposure time 2 d) was 82.9% and the “Inhibition rate of α-mangostin” value ([4]; sunlight, light exposure time 3 d) was 82.1%. For the same compound, the “Inhibition rate of α-mangostin” value ([4]; sunlight, light exposure time 4 d) was 80.5%, the “Inhibition rate of α-mangostin” value ([4]; sunlight, light exposure time 5 d) was 76.4% and the “ORAC against peroxyl radicals” value [5] was 8,704 μmole TE/gram. For the same compound, the ORAC against peroxynitrite [6] was 404 μmole TE/gram, the “ORAC against oxide anion” value [7] was 13,043 μmole TE/gram and the “ORAC 5.0 (sum of above)” value [8] was 31,468 μmole TE/gram. The “solubility in water (in words)” value [9] was “poor solubility in water”.
